# Source: US5021450A (priority 1989, dated 1991)
# Entries after “also recorded” stand apart in the source; their conditions may differ. Like-named read-outs stand apart in the source and are kept apart here.
# Experiments:
# mouse ear = conditions: in vivo; cited from earlier work
# polymodal nociceptors [1] = tested on: polymodal nociceptors; design: species or system Sprague-Dawley rats; conditions: rat, in vivo
# polymodal nociceptors [2] = conditions: rat, in vivo; cited from earlier work
# polymodal nociceptors [3] = experiment: animal or person; format: in vivo, Sprague-Dawley rats
# protein kinase C [4] = format: binding; conditions: for Ki: read-out: KI, binding affinity to protein kinase C
# polymodal nociceptors [5] = experiment: animal or person; format: in vivo, Sprague-Dawley rats; remark: listed apart in the source
# [6] = tested on: polymodal nociceptor neurons; conditions: in vivo; cited from earlier work
# [7] = mouse, in vivo; cited from earlier work
# [8] = rat, in vivo; cited from earlier work
# polymodal nociceptors [9] = format: in vivo, Sprague-Dawley rats; conditions: for Neurogenic inflammation, Evan's blue: 30 min; for Evan's blue extravasation / less potent than RTX for induction of Evan's blue extravasation: rat, in vivo
# polymodal nociceptors [10] = tested on: polymodal nociceptors; design: species or system Sprague-Dawley rats; conditions: rat, in vivo; remark: listed apart in the source
# [11] = tested on: polymodal nociceptor neurons; conditions: for RTX-like effects: in vivo
# protein kinase C [12] = conditions: read-out: KI, binding affinity to protein kinase C; cited from earlier work
# [13] = design: species or system rats; conditions: rat, in vivo
# [14] = Rattus norvegicus, sc, 6 h, read-out: Systemic desensitization against neurogenic pain, inhibition
# [15] = Rattus norvegicus, sc, 6 hr, read-out: Systemic desensitization against neurogenic inflammation, inhibition
SMILES,Relative Affinity (protein kinase C [4]),reduction of protein kinase C binding affinity by the 20-homovanillate ester (protein kinase C [4]) [fold],Ki (protein kinase C [4]) [nM],inhibition at 0.3 mg/kg (polymodal nociceptors [5]; [15]) [%],"Neurogenic inflammation, Evan's blue (polymodal nociceptors [9])",RPP (Relative Pain-Producing Potency) (polymodal nociceptors [10]),activity in eye-wiping assay / pain induction (polymodal nociceptors [10]),RTX-like effects [11],inhibition at 0.3 mg/kg (polymodal nociceptors [3]; [14]) [%],Evan's blue extravasation (polymodal nociceptors [9]),also measured
"C=C(C)[C@]12C[C@@H](C)[C@@]34O[C@](Cc5ccccc5)(O[C@@H]1[C@@H]3C=C(COC(=O)Cc1ccc(O)c(OC)c1)C[C@]1(O)C(=O)C(C)=C[C@@H]41)O2 [RTX, Resiniferatoxin]",11,11,404 ± 63,100,91.6 ± 3.6,1000,comparable activity,–,–,–,"more potent than phorbol 12-myristate 13-acetate in mouse ear erythema assay (mouse ear): 1000 fold; Local desensitization against neurogenic pain, inhibition (polymodal nociceptors [1]): 43%; dose giving a detectable Evan's blue extravasation response (polymodal nociceptors [2]): 3×10^-6 g/paw; inhibition at 0.01 mg/kg (polymodal nociceptors [3]; [14]): 100%; more potent compared to capsaicin [6]: 3-4 orders of magnitude; body temperature in mice [7]: dramatic fall in body temperature; dose producing a substantial drop in body temperature [8]: 10^-7 g/kg; delay of eye-wiping movements after instillation (polymodal nociceptors [10]): 5 to 10 s"
"C=C(C)[C@]12C[C@@H](C)[C@@]34O[C@](Cc5ccccc5)(O[C@@H]1[C@@H]3C=C(CO)C[C@]1(O)C(=O)C(C)=C[C@@H]41)O2 [ROA, Resiniferonol 9,13,14Orthophenylacetate]",–,–,36 ± 9,0,0,1,–,totally inactive,0,–,"potency in ear reddening assay, less than dPP (mouse ear): 25 fold; potency in ear reddening assay, less than mezerein (mouse ear): 33 fold; less active than dPP or mezerein in competing for phorbol ester binding sites on protein kinase C (protein kinase C [4]): 100 fold; less potent than RTX for RTX-characteristic biological responses (polymodal nociceptors [10]): at least 1000 fold"
"CC1=C[C@H]2[C@@]3(O)[C@H](C)C[C@]4(OC(=O)Cc5ccccc5)[C@H]([C@@H]3C=C(CO)C[C@]2(O)C1=O)C4(C)C [dPP, 12-deoxyphorbol 13-phenylacetate]",–,–,0.64 ± 0.01,0,0,1,–,inactive,–,slight extravasation,–
"C=C(C)[C@@]12O[C@@]3(c4ccccc4)O[C@@H]1[C@@H]1[C@@H]4O[C@]4(CO)[C@@H](O)[C@]4(O)C(=O)C(C)=C[C@H]4[C@@]1(O3)[C@H](C)[C@H]2OC(=O)/C=C/C=C/c1ccccc1 [Mez, Mezerein]",–,–,–,0,0,0.1,–,inactive,–,slight extravasation,Ki (protein kinase C [12]): 0.58 ± 0.06 nM
"C=C(C)[C@@]12O[C@@]3(c4ccccc4)O[C@@H]1[C@@H]1[C@@H]4O[C@]4(COC(=O)Cc4ccc(O)c(OC)c4)[C@@H](O)[C@]4(O)C(=O)C(C)=C[C@H]4[C@@]1(O3)[C@H](C)[C@H]2OC(=O)/C=C/C=C/c1ccccc1 [Mez-HV, Mezerein 20-homovanillate]",690,690,400 ± 110,0,0,0.1,very weak pungency; also recorded: very weak activity,inactive,0,No extravasation,"desensitization to chemically-induced pain and to neurogenic inflammation (polymodal nociceptors [3]; rat, in vivo): No activity; also recorded: inactive; less potent than RTX for induction of Evan's blue extravasation (polymodal nociceptors [9]): at least 30 fold; potency in eye-wiping assay, less potent than RTX and dPP-HV (polymodal nociceptors [10]): approximately 4 orders of magnitude"
COc1cc(CNC(=O)CCCC/C=C/C(C)C)ccc1O [capsaicin],–,–,–,–,–,–,–,–,–,–,body temperature in mice [7]: dramatic fall in body temperature
"COc1cc(CC(=O)OCC2=C[C@H]3[C@@H]4C(C)(C)[C@]4(OC(=O)Cc4ccccc4)C[C@@H](C)[C@]3(O)[C@@H]3C=C(C)C(=O)[C@@]3(O)C2)ccc1O [dPP-HV, 20-Homovanillic-12-deoxyphorbol 13-phenylacetate]",130,130,82 ± 13,26,0,1000,comparable to RTX; also recorded: comparable activity,more active than capsaicin and less active than RTX,19,No extravasation,"Local desensitization against neurogenic pain, inhibition (polymodal nociceptors [1]): 78%; potency relative to RTX for desensitization of pain upon local administration (polymodal nociceptors [1]): ≤ 10 fold; less potent than RTX in the other RTX responses / in vivo assays [11]: 2-4 orders of magnitude; induction of hypothermia [13]: totally inactive; less potent than RTX for induction of hypothermia [13]: at least 4 orders of magnitude; desensitization to chemically-induced pain and to neurogenic inflammation (polymodal nociceptors [3]; rat, in vivo): able to desensitize; relative potency for systemic desensitization to chemically induced pain, less than RTX (polymodal nociceptors [3]; rat, in vivo): approximately 3000 fold; inhibition at 1 mg/kg (polymodal nociceptors [5]; [15]): 62%; relative potency for inhibiting xylene-induced Evan's blue extravasation, less than RTX (polymodal nociceptors [5]; rat, in vivo): 300 fold; less potent than RTX for induction of Evan's blue extravasation (polymodal nociceptors [9]): at least 30 fold; delay of eye-wiping movements after instillation (polymodal nociceptors [10]): 20 to 30 s"
